Legend:
UT7/EPO cells [1] = assay: Proliferation of mother cell line UT7/EPO expressing no thrombopoietin receptor (WST-8); assay type: cell-based, human; conditions: FIG. 2
Procedure: (§1) UT7/EPO-mpl is a stable transformed cell line obtained by introducing into human leukemic cell line UT7/EPO a vector that induces expression of human thrombopoietin receptor (c-mpl) under control of cytomegalovirus immediate-early promoter by the method of Takatoku et al. (J. Biol. Chem., 272:7259-7263 (1997)). […] These two cell lines were subcultured in IMDM (GIBCO) containing 10% fetal bovine serum (Thermo Electron or BioWest) using a CO2 incubator (5% CO2, 37° C.).
The subcultured cells described above were washed twice with PBS and suspended in IMDM containing 10% fetal bovine serum at a cell density of 6×10^4 cells/ml. The cell suspension was transferred to a 96-well tissue culture plate (CORNING) in 100-μl aliquots. […] The formazan pigment generated was detected by measuring the absorbance at 450 nm with a 96-well microplate reader (Nihon Molecular Devices, Spectramax 190).

[2] = target: T1, human thrombopoietin receptor (c-mpl) (Homo sapiens, UniProt P40238); assay: Stimulation of proliferation of thrombopoietin-dependent cell line UT7/EPO-mpl (WST-8); assay type: cell-based; conditions: for EC50: human leukemic cell line UT-7/EPO-mpl, 4 days incubation, relative to 10 ng/mL TPO, read-out: EC50 (concentration that yields a growth rate corresponding to 50% of the growth observed in the presence of 10 ng/mL TPO) (converted)
T1 construct: expressed in transfected cells
T1 sequence (P40238 26-635): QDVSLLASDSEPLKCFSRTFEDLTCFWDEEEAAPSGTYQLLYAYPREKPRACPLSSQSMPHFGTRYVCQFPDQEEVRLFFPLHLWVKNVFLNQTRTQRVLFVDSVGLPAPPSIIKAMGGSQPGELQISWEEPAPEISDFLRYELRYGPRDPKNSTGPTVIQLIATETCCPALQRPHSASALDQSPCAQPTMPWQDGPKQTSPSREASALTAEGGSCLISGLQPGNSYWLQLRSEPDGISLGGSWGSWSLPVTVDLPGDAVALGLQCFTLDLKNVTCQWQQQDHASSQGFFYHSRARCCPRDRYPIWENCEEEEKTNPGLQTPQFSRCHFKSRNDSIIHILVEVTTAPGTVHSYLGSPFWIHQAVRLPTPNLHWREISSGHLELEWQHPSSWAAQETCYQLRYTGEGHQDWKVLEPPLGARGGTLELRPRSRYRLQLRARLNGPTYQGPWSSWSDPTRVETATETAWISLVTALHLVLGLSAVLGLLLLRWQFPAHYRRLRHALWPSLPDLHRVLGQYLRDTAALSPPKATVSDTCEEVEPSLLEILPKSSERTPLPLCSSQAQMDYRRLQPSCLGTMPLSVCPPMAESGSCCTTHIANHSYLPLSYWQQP
Procedure: The response of thrombopoietin receptor to the compound of Synthetic Example 2 of the present invention was assayed using a human leukemic cell line, UT7/EPO-mpl.
as §1
The subcultured cells described above were washed twice with PBS and suspended in IMDM containing 10% fetal bovine serum at a cell density of 6×10^4 cells/ml. The cell suspension was transferred to a 96-well tissue culture plate (CORNING) in 100-μl aliquots. Then either thrombopoietin (Pepro Tech EC, or the compound of Synthetic Example 2 dissolved in dimethyl sulfoxide was diluted 83-fold with IMDM containing 10% fetal bovine serum and added to the aforementioned cell suspension in 20-μl aliquots. The cell suspension was incubated in a CO2 incubator (5% CO2, 37° C.) for 4 days. Cell proliferation was assayed using WST-8 reagent (Kishida Chemical Co., Ltd.) according to instructions by the manufacturer. A 10-μl aliquot of 5 mM WST-8 reagent solution was added to each well of the tissue culture plate, and the plate was incubated at 37° C. for 4 hours. The formazan pigment generated was detected by measuring the absorbance at 450 nm with a 96-well microplate reader (Nihon Molecular Devices, Spectramax 190).
The compounds of the following Synthetic Examples were tested according to the method of Assay Example 1 to determine the concentration of each compound that yields a growth rate corresponding to 50% of the growth of human leukemic cell line UT-7/EPO-mpl observed in the presence of 10 ng/mL TPO (EC50).

[3] = target: T1, human thrombopoietin receptor (c-mpl); conditions: property of the cell line as described; cited from earlier work
UT7/EPO cells [4] = conditions: property of the cell line as described; cited from earlier work

| EC50 [2] [nM] | Compound | further results |
| --- | --- | --- |
|  | C/C(=N\NC(=O)c1ccc(C(=O)NCC2CCCO2)s1)c1csc(-c2ccc(Cl)c(Cl)c2)c1O (stereo not shown) [Synthetic Example 2, 5-{1-[5-(3,4-Dichlorophenyl)-4-hydroxythiophen-3-yl]ethylidenehydrazinocarbonyl}thiophene-2-carboxylic acid(tetrahydrofuran-2-ylmethyl)amide] | effect on proliferation of UT7/EPO, the mother cell line (UT7/EPO cells [1]): no effect; proliferation of thrombopoietin-responsive UT7/EPO-mpl cells ([2]; FIG. 1, UT7/EPO-mpl cells, 4 days, WST-8 absorbance at 450 nm): stimulated; acts on the thrombopoietin receptor selectively as an activator ([2]; conclusion from UT7/EPO-mpl versus UT7/EPO): selectively |
| 0.566 | CC(=O)NC1CCN(C(=O)c2ccc(C(=O)N/N=C(\C)c3csc(-c4ccc(Cl)c(Cl)c4)c3O)s2)C1 (stereo not shown) [compound 5] |  |
| 2.27 | C/C(=N\NC(=O)c1ccc(C(=O)NN(C)C)s1)c1csc(-c2ccc(C(C)(C)C)cc2)c1O [compound 24] |  |
| 6.5 | C/C(=N\NC(=O)c1ccc(C(=O)NCCC(=O)O)s1)c1csc(-c2ccc(Cl)cc2)c1O [compound 45] |  |
| 2.77 | C/C(=N\NC(=O)c1ccc(C(=O)NCCCN2CCOCC2)s1)c1nn(C)c(-c2ccc(C(F)(F)F)cc2)c1O [compound 49] |  |
| 1.56 | C/C(=N\NC(=O)c1ccc(C(=O)NNc2ccccn2)s1)c1csc(-c2ccc(Cl)c(Cl)c2)c1O [compound 58] |  |
| 4.12 | C/C(=N\NC(=O)c1ccc(C(=O)NCCC(=O)O)s1)c1csc(-c2ccc(C)c(C)c2)c1O [compound 65] |  |
| 5.01 | COC1CN(C(=O)c2ccc(C(=O)N/N=C(\C)c3csc(-c4ccc(Br)cc4)c3O)s2)CC1OC (stereo not shown) [compound 84] |  |
| 0.652 | C/C(=N\NC(=O)c1ccc(C(=O)N2CC(O)C(O)C2)s1)c1csc(-c2cccc(Cl)c2)c1O (stereo not shown) [compound 90] |  |
|  | TPO: Thrombopoietin is a cytokine consisting of 332 amino acids that increases platelet production | proliferation of UT7/EPO-mpl cell line [3]: stimulated; response of mother cell line UT7/EPO (UT7/EPO cells [4]): no response |
